Reference: patent publication US8647827B2, “Fluorescent substrates for neurotransmitter transporters” (Vanderbilt University, priority 2006, dated 2014)
Read-outs that look alike come from different tables or passages of the source.

Legend:
DAT [1] = target: DAT (Homo sapiens, UniProt Q01959); conditions: previously reported, U.S. Publication No. 20040115703; cited from earlier work
NET [2] = target: T1, NET (Homo sapiens, UniProt P23975); conditions: previously reported, U.S. Publication No. 20040115703; cited from earlier work
T1 sequence (P23975 whole entry): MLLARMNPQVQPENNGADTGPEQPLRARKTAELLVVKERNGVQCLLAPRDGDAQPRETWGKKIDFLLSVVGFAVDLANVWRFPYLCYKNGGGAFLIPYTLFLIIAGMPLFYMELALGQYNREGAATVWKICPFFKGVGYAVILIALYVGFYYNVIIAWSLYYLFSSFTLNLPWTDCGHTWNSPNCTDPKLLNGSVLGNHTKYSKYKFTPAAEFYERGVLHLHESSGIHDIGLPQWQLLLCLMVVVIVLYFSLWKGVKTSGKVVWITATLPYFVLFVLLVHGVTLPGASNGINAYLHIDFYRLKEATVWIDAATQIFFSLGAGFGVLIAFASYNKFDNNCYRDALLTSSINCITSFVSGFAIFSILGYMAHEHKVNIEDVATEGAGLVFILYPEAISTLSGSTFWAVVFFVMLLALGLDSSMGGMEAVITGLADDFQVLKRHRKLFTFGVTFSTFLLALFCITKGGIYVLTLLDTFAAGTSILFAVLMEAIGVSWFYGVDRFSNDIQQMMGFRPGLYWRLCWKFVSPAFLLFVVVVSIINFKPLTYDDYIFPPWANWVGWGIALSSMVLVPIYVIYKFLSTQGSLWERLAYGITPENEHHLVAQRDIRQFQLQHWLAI

SERT [3] = target: T2, SERT (Homo sapiens, UniProt P31645); conditions: cited from earlier work
Target sequence in this assay (P31645 whole entry, species assumed): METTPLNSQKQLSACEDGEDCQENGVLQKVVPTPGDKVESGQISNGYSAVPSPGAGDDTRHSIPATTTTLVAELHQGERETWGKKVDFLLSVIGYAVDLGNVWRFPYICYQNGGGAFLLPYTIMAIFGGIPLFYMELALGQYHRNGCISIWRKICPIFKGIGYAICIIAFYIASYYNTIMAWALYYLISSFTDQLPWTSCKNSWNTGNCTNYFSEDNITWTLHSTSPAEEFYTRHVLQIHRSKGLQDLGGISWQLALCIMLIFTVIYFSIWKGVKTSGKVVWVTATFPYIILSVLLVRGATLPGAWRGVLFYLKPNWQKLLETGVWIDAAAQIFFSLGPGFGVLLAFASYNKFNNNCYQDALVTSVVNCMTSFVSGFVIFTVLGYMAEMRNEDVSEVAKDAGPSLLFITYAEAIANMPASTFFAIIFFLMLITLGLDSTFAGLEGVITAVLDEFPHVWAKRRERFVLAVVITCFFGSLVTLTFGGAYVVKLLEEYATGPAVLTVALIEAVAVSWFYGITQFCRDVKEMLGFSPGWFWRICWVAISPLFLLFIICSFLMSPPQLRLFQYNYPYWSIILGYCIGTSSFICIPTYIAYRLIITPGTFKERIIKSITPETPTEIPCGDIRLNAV

[4] = Fluorescence spectra of intracellular IDT307; type: physicochemical
Procedure: (§1) FIG. 7—Imaging IDT307 with Zeiss LSM-510 Confocal Meta Detector. LLC Cells expressing rDAT were exposed to 10 μM IDT307 for 1 hr before rinsing with KRH buffer and imaging with a Zeiss LSM-510 confocal microscope using the meta detector. Quantification of fluorescence at each wavelength for selected regions of interest was performed using ImageJ analysis software.
FIG. 8—Fluorescence Spectra of Intracellular IDT307. IDT307 maximum absorption=420 nm, maximum emission=510 nm.

DAT [5] = target: T3, DAT (Rattus norvegicus, UniProt P23977); assay: IDT307 accumulation/transport by fluorescence, DAT; type: cell-based
T3 construct: expressed in transfected cells; host or cells: LLC cells
T3 sequence (P23977 whole entry): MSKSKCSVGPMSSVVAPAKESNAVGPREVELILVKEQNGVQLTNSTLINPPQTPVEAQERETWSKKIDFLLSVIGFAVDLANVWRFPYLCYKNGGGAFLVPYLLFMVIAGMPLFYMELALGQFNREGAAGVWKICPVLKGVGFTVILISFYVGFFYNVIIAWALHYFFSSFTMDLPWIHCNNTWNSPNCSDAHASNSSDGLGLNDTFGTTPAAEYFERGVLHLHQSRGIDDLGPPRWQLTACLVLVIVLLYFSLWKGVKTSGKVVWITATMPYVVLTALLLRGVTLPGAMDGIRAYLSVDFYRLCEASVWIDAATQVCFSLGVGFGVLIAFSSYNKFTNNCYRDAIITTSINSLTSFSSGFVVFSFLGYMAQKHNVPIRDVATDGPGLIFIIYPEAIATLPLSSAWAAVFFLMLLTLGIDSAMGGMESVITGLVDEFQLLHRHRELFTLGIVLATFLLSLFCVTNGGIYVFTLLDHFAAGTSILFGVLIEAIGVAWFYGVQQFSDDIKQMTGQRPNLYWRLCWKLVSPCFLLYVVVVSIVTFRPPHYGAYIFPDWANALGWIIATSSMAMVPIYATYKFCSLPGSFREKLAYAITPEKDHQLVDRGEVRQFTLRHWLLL
Procedure: as §1
(§2) 4-(4-(dimethylamino)phenyl)-1-methylpyridinium iodide, referred to herein as IDT307, is a dye with optical activity that has been discussed by a number of different researchers (Bulgarevich et al., 1992; Kuo, 1978; Coe et al., 2003; Zauhar et al., 1995; Lyapustina et al., 1993). […] IDT307 fluorescent microscopy permits localization of transport activity in single cells and neuronal processes. The IDT307 fluorescent microscopy methods of the invention also permits analysis of many cells, while retaining information about single cells. The IDT307 fluorescence assays of the invention provide detailed mechanistic information about transport. For example, temporal and spatial resolution of transport, transport kinetics, affinity for substrate, turnover rates, surface expression, and binding constants may be measured. Furthermore, features such as voltage dependence of neurotransmitter accumulation can be assessed under voltage clamp using IDT307 fluorescent microscopy.

NET [6] = target: T1, NET; assay: IDT307 accumulation/transport by time-resolved fluorescence microscopy in HEK cells expressing hNET; type: cell-based; set-up: expressed in transfected cells; host or cells: HEK cells
From the text: as §2
Fluorescent microscopy is used to measure transport using IDT307 which is a fluorescent substrate for several neurotransmitter transporters. Cells that either endogenously or exogenously express a […] are isolated and plated on glass bottom Petri-dishes or multi-well plates that may typically be coated with poly-L-lysine or any other cell adhesive agent. Cells are typically cultured for three or more days. […]

SERT [7] = target: T2, SERT; assay: IDT307 accumulation/transport by fluorescence, SERT; type: cell-based; set-up: expressed in transfected cells
Procedure: FIG. 3—IDT307 accumulation using a FlexStation™ fluorimeter. IDT307 accumulation using the FlexStation fluorimeter (excitation 440 nm/emission filter 595 nm). LLC non-transfected and hSERT expressing (control) cells were cultured in separate wells of a 96-well plate until confluent. The accumulation of IDT307 (10 μM) in these wells was then monitored in the presence and absence of paroxetine (1 μM) using the FlexStation.
FIGS. 5A-C—Kinetics of IDT307 accumulation in hSERT using the FlexStation™ fluorimeter. Kinetics of IDT307 accumulation in hSERT using the FlexStation fluorimeter. hSERT expressing cells were cultured in wells of a 96-well plate until confluent. […] SERT specific accumulation for each concentration of IDT307 was then calculated from specific uptake values (total uptake—inhibitor treated uptake).
4-(4-(dimethylamino)phenyl)-1-methylpyridinium iodide, referred to herein as IDT307, is a dye with optical activity that has been discussed by a number of different researchers (Bulgarevich et al., 1992; Kuo, 1978; Coe et al., 2003; Zauhar et al., 1995; Lyapustina et al., 1993). […] The IDT307 fluorescence assays of the invention provide detailed mechanistic information about transport. For example, temporal and spatial resolution of transport, transport kinetics, affinity for substrate, turnover rates, surface expression, and binding constants may be measured. […]
Target sequence in this assay (P31645 whole entry): as the sequence (P31645 whole entry, species assumed) above

SERT [8] = target: T2, SERT; assay: [3H]5-HT uptake inhibition in LLC cells stably expressing hSERT; type: cell-based; set-up: expressed in transfected cells; conditions: [3H]5-HT 30 nM, 5 min at 37° C.
Procedure: FIG. 2—[^3H]5-HT uptake inhibition by IDT307 of SERT. […] LLC cells stably expressing hSERT were incubated with [^3H]5-HT (30 nM) in the presence of increasing concentrations of IDT307 (10^−12 to 10^−3) for 5 min at 37° C. Specific uptake was defined as total uptake minus uptake in the presence of the inhibitor paroxetine 1 μM.
Target sequence in this assay (P31645 whole entry): as the sequence (P31645 whole entry, species assumed) above

Chain of DAT (Homo sapiens, UniProt Q01959) (Q01959 whole entry, species assumed): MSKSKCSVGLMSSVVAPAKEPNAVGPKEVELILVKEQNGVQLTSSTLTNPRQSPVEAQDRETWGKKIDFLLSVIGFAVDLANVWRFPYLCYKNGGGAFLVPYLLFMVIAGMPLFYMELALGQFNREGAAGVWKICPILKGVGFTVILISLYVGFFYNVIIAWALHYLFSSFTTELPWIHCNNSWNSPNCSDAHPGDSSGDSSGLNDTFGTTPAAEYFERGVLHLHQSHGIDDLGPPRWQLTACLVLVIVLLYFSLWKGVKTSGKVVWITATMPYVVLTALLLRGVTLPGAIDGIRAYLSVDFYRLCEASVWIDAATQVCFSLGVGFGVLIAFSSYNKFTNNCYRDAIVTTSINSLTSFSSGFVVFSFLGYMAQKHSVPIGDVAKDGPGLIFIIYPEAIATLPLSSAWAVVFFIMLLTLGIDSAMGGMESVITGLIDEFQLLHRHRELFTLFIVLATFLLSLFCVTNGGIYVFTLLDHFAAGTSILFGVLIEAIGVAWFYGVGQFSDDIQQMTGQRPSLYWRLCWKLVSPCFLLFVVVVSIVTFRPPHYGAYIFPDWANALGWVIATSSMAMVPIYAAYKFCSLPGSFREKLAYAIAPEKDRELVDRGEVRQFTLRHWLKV

SMILES	transport by DAT (DAT [1])	transport by NET (NET [2])	effectiveness as a substrate for the serotonin transporter (SERT [3])	transport by SERT (SERT [3]; previously reported, U.S. Publication No. 20040115703)	maximum absorption [4] [nm]	maximum emission [4] [nm]	potency of IDT307 accumulation for DAT (DAT [5])	transport by DAT (DAT [5])	potency of IDT307 accumulation for hNET (NET [6])	transport by NET (NET [6])	potency of IDT307 accumulation for SERT (SERT [7])	transport by SERT (SERT [7])	[3H]5-HT uptake inhibition (SERT [8])
CN(C)c1ccc(C=Cc2cc[n+](C)cc2)cc1 [ASP^+, 4-(4-dimethylaminostyrl)-N-methylpyridinium]	transported	transported	only minimally effective as a substrate	transported									
CN(C)c1ccc(-c2cc[n+](C)cc2)cc1.[I-] [IDT307, 4-(4-(dimethylamino)phenyl)-1-methylpyridinium iodide]					420	510	sub-mM potency	transported	sub-mM potency	transported	sub-mM potency	transported	competes for [^3H]5-HT uptake
